The values that follow come from patent US20010012846A1, “Quinoline-4-carboxamide derivatives as NK-2 and NK-3 receptor antagonists” (priority 1997, published 2001).

Where “and” joins values, the source holds several entries; their conditions need not be identical. Equal entries are not always repeated. Structures can show the parent of a compound that is named as a salt.

One may read the melting point as the temperature of the solid-liquid transition. By Ki is commonly meant the equilibrium dissociation constant of an inhibitor or competing ligand from its target.

The target of data set [1] is T1, human neurokinin-2 receptor (Homo sapiens, UniProt P21452).
T1 construct: expressed in transfected cells; host or cells: CHO
T1 sequence (P21452 1-398): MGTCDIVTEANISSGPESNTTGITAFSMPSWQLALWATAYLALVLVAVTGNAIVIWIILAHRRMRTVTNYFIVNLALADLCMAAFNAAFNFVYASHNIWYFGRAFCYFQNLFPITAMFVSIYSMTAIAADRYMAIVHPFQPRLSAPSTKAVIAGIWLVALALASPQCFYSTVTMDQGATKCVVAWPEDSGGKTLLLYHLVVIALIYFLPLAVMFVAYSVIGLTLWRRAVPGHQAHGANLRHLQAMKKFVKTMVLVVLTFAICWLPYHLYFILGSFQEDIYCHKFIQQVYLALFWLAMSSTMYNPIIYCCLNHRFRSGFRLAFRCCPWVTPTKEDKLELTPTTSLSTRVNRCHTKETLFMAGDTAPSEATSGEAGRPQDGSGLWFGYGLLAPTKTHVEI
The experiment in a line: Binding affinity to human NK-2 receptor expressed in CHO cells (inhibition of [125I]-NKA or [3H]-NKA binding). Conditions: human neurokinin-2 receptor expressed in CHO cell lines; read-out: Binding affinity, Ki (nM) hNK-2-CHO. The method, then: The activity of the compounds of the present invention, as NK-2 ligands, is determined by their ability to inhibit the binding of the radiolabelled NK-2 ligands, [^125I]-NKA or [^3H]-NKA, to human NK-2 receptors (Aharony et al, 1992, Neuropeptide, 23, 121-130).
The binding assays utilized allow the determination of the concentration of the individual compound required to reduce by 50% the [^125I]-NKA and [^3H]-NKA specific binding to NK2 receptor in equilibrium conditions (IC50).
Binding assays provide for each compound tested a mean IC50 value of 2-5 separate experiments performed in duplicate or triplicate. […] The NK-2-antagonist activity of the compounds of the present invention is determined by their ability to inhibit human NK-2 receptor-mediated Ca^++ mobilization (Mochizuki et al, 1994, J. Biol. Chem., 269, 9651-9658). Human receptor functional assay allows the determination of the concentration of the individual compound required to reduce by 50% (IC50 values) the Ca^++ mobilization induced by the agonist NKA. In this assay, the compounds of the present invention behave as antagonists.

Data set [2] addresses T2, human neurokinin-3 receptor (Homo sapiens, UniProt P29371).
T2 construct: expressed in transfected cells; host or cells: CHO
T2 sequence (P29371 1-465): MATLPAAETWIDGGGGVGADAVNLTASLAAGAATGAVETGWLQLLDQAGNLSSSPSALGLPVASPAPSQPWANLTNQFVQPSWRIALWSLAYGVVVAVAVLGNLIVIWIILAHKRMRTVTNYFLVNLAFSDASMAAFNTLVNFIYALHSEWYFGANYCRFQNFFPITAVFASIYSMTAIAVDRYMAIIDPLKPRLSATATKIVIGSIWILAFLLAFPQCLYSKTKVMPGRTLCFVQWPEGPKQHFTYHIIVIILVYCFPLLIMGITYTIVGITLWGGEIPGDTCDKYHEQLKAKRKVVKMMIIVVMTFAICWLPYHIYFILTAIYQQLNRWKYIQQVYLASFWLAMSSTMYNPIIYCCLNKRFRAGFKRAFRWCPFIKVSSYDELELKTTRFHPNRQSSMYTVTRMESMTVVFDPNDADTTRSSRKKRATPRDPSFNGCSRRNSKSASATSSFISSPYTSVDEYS
The experiment in a line: Binding affinity to human NK-3 receptor expressed in CHO cells (inhibition of [125I]-[Me-Phe7]-NKB or [3H]-Senktide binding). As to conditions: human neurokinin-3 receptor expressed in CHO cell lines; read-out: Binding affinity, Ki (nM) hNK-3-CHO. The method, then: The activity of the compounds of the present invention, as NK3 ligands, is determined by their ability to inhibit the binding of the radiolabelled NK3 ligands, [^125I]-[Me-Phe^7]-NKB or [^3H]-Senktide, to guinea-pig and human NK3 receptors (Renzetti et al, 1991, Neuropeptide, 18, 104-114; Buell et al, 1992, FEBS, 299(1), 90-95; Chung et al, 1994, Biochem. Biophys. Res. Commun., 198(3), 967-972).
The binding assays utilized allow the determination of the concentration of the individual compound required to reduce by 50% the [^125I]-[Me-Phe^7]-NKB and [^3H]-Senktide specific binding to NK3 receptor in equilibrium conditions (IC50).
Binding assays provide for each compound tested a mean IC50 value of 2-5 separate experiments performed in duplicate or triplicate. […] The NK3-antagonist activity of the compounds of the present invention is determined by their ability to inhibit senktide-induced contraction of the guinea-pig ileum (Maggi et al, 1990, Br. J. Pharmacol., 101, 996-1000) and rabbit isolated iris sphincter muscle (Hall et al., 1991, Eur. J. Pharmacol., 199, 9-14) and human NK3 receptors-mediated Ca^++ mobilization (Mochizuki et al, 1994, J. Biol. Chem., 269, 9651-9658). Guinea-pig and rabbit in-vitro functional assays provide for each compound tested a mean KB value of 3-8 separate experiments, where KB is the concentration of the individual compound required to produce a 2-fold rightward shift in the concentration-response curve of senktide. Human receptor functional assay allows the determination of the concentration of the individual compound required to reduce by 50% (IC50 values) the Ca^++ mobilization induced by the agonist NKB. In this assay, the compounds of the present invention behave as antagonists.

Take `CC[C@H](NC(=O)c1c(CN2CCCCC2)c(-c2ccccc2)nc2ccccc12)c1ccccc1` (as salt: HCl) [Example 8]: the melting point is 140 °C (dec.).

In turn, `CC[C@H](NC(=O)c1c(CN2CCN(C)CC2)c(-c2ccccc2)nc2ccccc12)c1ccccc1` (as salt: HCl) [Example 11] returned a melting point of 195 to 198 °C.

For the molecule `CC[C@H](NC(=O)c1c(CCN2CCN(c3ccccc3)CC2)c(-c2ccccc2)nc2ccccc12)c1ccccc1` (as salt: HCl) [Example 12], the melting point was 206 °C (dec.).

As to `CC[C@H](NC(=O)c1c(CCCN2CCN(c3ccccc3)CC2)c(-c2ccccc2)nc2ccccc12)c1ccccc1` (as salt: HCl) [Example 13], the melting point was 180 °C (dec.).

The molecule `CC[C@H](NC(=O)c1c(CN2CCN(C(C)C)CC2)c(-c2ccccc2)nc2ccccc12)c1ccccc1` (as salt: HCl) [Example 20] came in with a melting point of 178 to 182 °C.

For the molecule `CC[C@H](NC(=O)c1c(CN2CCC[C@@H]2CO)c(-c2ccccc2)nc2ccccc12)c1ccccc1` [Example 5], the melting point was 83 °C (dec.). Also, the Ki in data set [1] amounted to 73.2 nM. In addition, the inhibitory constant (Ki) in data set [2] was determined as 0.9 nM.

With `CC[C@H](NC(=O)c1c(CN(C)CCO)c(-c2ccccc2)nc2ccccc12)c1ccccc1` [Example 6], the melting point was 167 to 170 °C. In data set [1], the inhibition constant Ki turned out to be 65.5 nM. Also, the Ki in data set [2] turned out to be 1.2 nM.

As to `CC[C@H](NC(=O)c1c(CN2CCCCC2)c(-c2ccccc2)nc2ccccc12)c1ccccc1` [Example 8], the inhibition constant Ki in data set [1] turned out to be 24.1 nM; in data set [2], 0.9 nM.

Regarding `CC[C@H](NC(=O)c1c(CN2CCC3(CC2)OCCO3)c(-c2ccccc2)nc2ccccc12)c1ccccc1` [Example 9, (S)-N-(α-ethylbenzyl)-3-[(1,4-dioxa-8-azaspiro[4.5]decan-8-yl)methyl]-2-phenylquinoline-4-carboxamide], the melting point lay in the range of 170 to 173 °C. For the same molecule, in data set [1], the inhibition constant (Ki) came to 18.2 nM. The Ki in data set [2] was 0.8 nM.

`CC[C@H](NC(=O)c1c(CN2CCN(C)CC2)c(-c2ccccc2)nc2ccccc12)c1ccccc1` [Example 11]: the inhibitory constant (Ki) stood at 66.8 nM in data set [1] and 4 nM in data set [2].

Consider `CC[C@H](NC(=O)c1c(CCN2CCN(c3ccccc3)CC2)c(-c2ccccc2)nc2ccccc12)c1ccccc1` [Example 12], for which the Ki was determined as 39 nM in data set [1] and 1.9 nM in data set [2].

Consider `CC[C@H](NC(=O)c1c(CCCN2CCN(c3ccccc3)CC2)c(-c2ccccc2)nc2ccccc12)c1ccccc1` [Example 13], for which the figures for the inhibitory constant (Ki) in data set [1] and in data set [2] were 3.8 nM and 0.3 nM, respectively.

For the molecule `CC[C@H](NC(=O)c1c(CCCCN2CCN(c3ccccc3)CC2)c(-c2ccccc2)nc2ccccc12)c1ccccc1` [Example 14], the melting point was 151 to 153 °C. In addition, in data set [1], the Ki was 22.2 nM. For the same molecule, the Ki in data set [2] came out at 1.1 nM.

Turning to `CC[C@H](NC(=O)c1c(CN2CCC(=O)CC2)c(-c2ccccc2)nc2ccccc12)c1ccccc1` [Example 17, (S)-N-(α-Ethylbenzyl)-3-[(4-oxopiperidin-1-yl)methyl]-2-phenylquinoline-4-carboxamide], the melting point was above 95 °C. Also, the inhibition constant Ki in data set [1] amounted to 42.7 nM. For the same molecule, in data set [2], the Ki is 1.5 nM.

`CC[C@H](NC(=O)c1c(CN2CCC(O)CC2)c(-c2ccccc2)nc2ccccc12)c1ccccc1` [Example 18, (S)-N-(α-Ethylbenzyl)-3-[(4-hydroxypiperidin-1-yl)methyl]-2-phenylquinoline-4-carboxamide] showed a melting point of 203 to 207 °C. For the same molecule, in data set [1], the inhibitory constant (Ki) came out at 44.6 nM. In data set [2], the inhibitory constant (Ki) stood at 2.3 nM.

As for `CC[C@H](NC(=O)c1c(CN2CCN(C(C)C)CC2)c(-c2ccccc2)nc2ccccc12)c1ccccc1` [Example 20], the results for the inhibitory constant (Ki) in data set [1] and in data set [2] were 5.7 nM and 1.8 nM, respectively.

`CC[C@H](NC(=O)c1c(CCCN2C(=O)c3ccccc3C2=O)c(-c2ccccc2)nc2ccccc12)c1ccccc1` [Example 21] gave a melting point of 182 to 183 °C. For the same molecule, the inhibitory constant (Ki) in data set [1] was 6.4 nM. In addition, the Ki in data set [2] was 0.9 nM.

Molecule `CC[C@H](NC(=O)c1c(CCN2CCN(c3cccc(C(F)(F)F)c3)CC2)c(-c2ccccc2)nc2ccccc12)c1ccccc1` [Example 22] registered a melting point of 115 to 117 °C. The Ki in data set [1] is 44.9 nM. In data set [2], the Ki came out at 2.9 nM.

With `CC[C@H](NC(=O)c1c(CCCN2CCN(c3cccc(C(F)(F)F)c3)CC2)c(-c2ccccc2)nc2ccccc12)c1ccccc1` [Example 23], the melting point was in the range of 102 to 105 °C. Moreover, the inhibitory constant (Ki) in data set [1] is 9.7 nM. For the same molecule, the Ki in data set [2] came to 1.2 nM.

In the case of `CC[C@H](NC(=O)c1c(CCCN2CCN(c3ccc(Cl)cc3)CC2)c(-c2ccccc2)nc2ccccc12)c1ccccc1` [Example 24], the melting point is 100 to 105 °C. In data set [1], the Ki stood at 3.3 nM. Further, the inhibition constant Ki in data set [2] turned out to be 0.9 nM.

`CC[C@H](NC(=O)c1c(CCCN2CCC(c3ccccc3)CC2)c(-c2ccccc2)nc2ccccc12)c1ccccc1` [Example 25] registered a melting point of 75 to 80 °C. In addition, in data set [1], the inhibition constant (Ki) was determined as 1.5 nM. In addition, the Ki in data set [2] was determined as 0.5 nM.

Regarding `CC[C@H](NC(=O)c1c(CN2CCN(Cc3ccccc3)CC2)c(-c2ccccc2)nc2ccccc12)c1ccccc1` [Example 26, (S)-N-(α-ethylbenzyl)-3-[(4-benzylpiperazin-1-yl)methyl]-2-phenylquinoline-4-carboxamide], the melting point was 85 °C (dec.). In addition, in data set [1], the Ki stood at 1.7 nM. Also, the inhibitory constant (Ki) in data set [2] was 0.4 nM.

Regarding `CC[C@H](NC(=O)c1c(CCN2CCN(c3ccc(Cl)cc3)CC2)c(-c2ccccc2)nc2ccccc12)c1ccccc1` [Example 27], the melting point is 100 to 110 °C (dec.). In addition, the inhibition constant (Ki) in data set [1] came to 53.5 nM. The Ki in data set [2] amounted to 2.8 nM.

As for `CC[C@H](NC(=O)c1c(CN2CCNCC2)c(-c2ccccc2)nc2ccccc12)c1ccccc1` [Example 28, (S)-N-(α-Ethylbenzyl)-3-[(piperazin-1-yl)methyl]-2-phenylquinoline-4-carboxamide], the melting point was 94 to 98 °C and 94.5 to 98 °C.

In the case of `CC[C@H](NC(=O)c1c(CCN2CCN(c3ccc(C)cc3)CC2)c(-c2ccccc2)nc2ccccc12)c1ccccc1` [Example 29], the melting point is 93 to 96 °C. In addition, in data set [1], the Ki came out at 35.3 nM. For the same molecule, in data set [2], the Ki worked out at 2.5 nM.

As to `CC[C@H](NC(=O)c1c(CCN2CCN(C(C)C)CC2)c(-c2ccccc2)nc2ccccc12)c1ccccc1` [Example 39], the inhibition constant (Ki) was found to be 35.6 nM in data set [1] and 0.8 nM in data set [2].
